Measurements from patent publication US5942489A, “HGH-RH(1-29)NH2 analogues having antagonistic activity” (The Administrators of the Tulane Educational Fund, priority 1996, dated 1999).
Where a SMILES comes first, the peptide text is derived from it. Bridges are numbered along the chain shown (N, C = ends). Where no end group is shown, it is not given here. [ ]: non-standard residue; d: D form. The star is where a group is joined. Phe(4-Cl) = N[C@@H](Cc1ccc(Cl)cc1)C(=O)O; Agmatine = N=C(N)NCCCCN*; Nle = CCCC[C@H](N)C(=O)O; Abu = CC[C@H](N)C(=O)O; PhAc = O=C(Cc1ccccc1)*

Legend:
GH releasing activity = conditions: cited from earlier work; for bioactivity of shorter analogues: compared with hGH-RH(1-29)NH2; for GH releasing activity relative to GH-RH: percent of that of GH-RH
[1] = tested on: GH release induced by 1 nM hGH-RH(1-29)NH2 in superfused rat pituitary cells; assay: Inhibition of hGH-RH(1-29)NH2-induced GH release in superfused rat pituitary system; format: cell-based; conditions: 100 nM peptide
Method: Superfused Rat Pituitary System. The analogues were tested in vitro in a test described earlier (S. Vigh and A. V. Schally, Peptides 5:241-[…], 1984) with modification (Z. Rekasi and A. V. Schally, P. N. A. S. 90:2146-2149, 1993).
Briefly, the cells are preincubated with peptides for 9 minutes (3 mL) at various concentrations. Immediately after the incubation, 1 nM hGH-RH(1-29)NH2 is administered for 3 minutes (1 mL) [0 minute response]. To check the duration of the antagonistic effect of the analogue, 1 nM hGH-RH(1-29)NH2 is applied 30, 60, 90, and 120 minutes later for 3 minutes [30, 60, 90, 120 min responses]. Net integral values of the GH responses are evaluated. GH responses are compared to and expressed as percent of the original GH response induced by 1 nM GH-RH(1-29)NH2. The effect of the new antagonists are compared to that of [Ac-Tyr^1,D-Arg^2 ]hGH-RH(1-29)NH2, the "Standard antagonist".
Growth Hormone Radio-immunoassay. Rat GH levels in aliquots of undiluted and diluted superfusion samples were measured by double-antibody radioimmunoassay using materials supplied by the National Hormone and Pituitary Program, Baltimore, Md. The results of RIA were analyzed with a computer program developed in our institute (V. Csernus and A. V. Schally, Harwood Academic (Greenstein, B. C. ed., London, pp. 71-109, 1991), hereby incorporated by reference. Inter-assay variation was less than 15% and intra-assay variation was less than 10%.

[2] = target: T1, rat pituitary GH-RH receptors (Rattus norvegicus, UniProt Q02644); assay: GH-RH radioreceptor binding assay, competition with labelled [His1,Nle27]hGH-RH(1-32)NH2; conditions: for Ki: rat anterior pituitary membrane homogenates, read-out: Ki values, K
T1 construct: from tissue; host or cells: anterior pituitary of male Sprague-Dawley rats, crude membranes
T1 sequence (Q02644 23-464): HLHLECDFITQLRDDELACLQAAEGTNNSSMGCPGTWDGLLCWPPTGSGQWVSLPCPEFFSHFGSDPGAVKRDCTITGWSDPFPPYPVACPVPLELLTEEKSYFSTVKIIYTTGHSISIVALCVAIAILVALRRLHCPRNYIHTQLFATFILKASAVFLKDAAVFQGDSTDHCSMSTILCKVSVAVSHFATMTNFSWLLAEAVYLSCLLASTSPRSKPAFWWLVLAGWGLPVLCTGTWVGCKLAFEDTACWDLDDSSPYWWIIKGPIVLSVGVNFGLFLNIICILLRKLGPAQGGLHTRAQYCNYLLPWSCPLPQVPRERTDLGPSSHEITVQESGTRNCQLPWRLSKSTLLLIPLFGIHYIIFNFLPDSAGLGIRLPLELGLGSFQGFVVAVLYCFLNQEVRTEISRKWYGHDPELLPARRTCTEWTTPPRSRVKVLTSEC
Method: GH-RH Binding Assay. A sensitive radioreceptor binding assay was developed to determine the binding characteristics of the antagonists of GH-RH (G. Halmos, A. V. Schally et al., Receptor 3, 87-97, 1993), hereby incorporated by reference. The assay is based on binding of labelled [His^1, Nle^27 ]hGH-RH(1-32)NH2 to rat anterior pituitary membrane homogenates. Iodinated derivatives of [His^1, Nle^27 ]hGH-RH(1-32)NH2 are prepared by the chloramine-T method (F. C. Greenwood et al., Biochemistry 89:114-123, 1963), hereby incorporated by reference. Pituitaries from male Sprague-Dawley rats (250-300 g) are used to prepare crude membranes. For saturation binding analyses, membrane homogenates are incubated with at least 6 concentrations of [His^1,125I-Tyr^10,Nle^27 ]hGH-RH(1-32)NH2, ranging from 0.005 to 0.35 nM in the presence or absence of excess unlabelled peptide (1 μM).
The pellet is counted for radioactivity in a γ-counter. The affinities of the antagonist peptides tested to rat pituitary GH-RH receptors are determined in competitive binding experiments. The final binding affinities are estimated by Ki (dissociation constant of the inhibitor-receptor complex) and are determined by the Ligand PC computer program of Munson and Rodbard as modified by McPherson. Relative affinities compared to [Ac-Tyr^1, D-Arg^2 ]hGH-RH(1-29)NH2, the Standard antagonist, are calculated as the ratio of Ki of the tested GH-RH antagonist to the Ki of the Standard antagonist.

[3] = tested on: SW-1990 human pancreatic cancers; assay: SW 1990 human pancreatic cancers in nude mice; format: in vivo; conditions: dose 10, 44 days treatment
Method: Small piees of an SW-1990 rumor growing in a nude mouse were transplated s.c. into the right flanks of 60 nu/nu male nude mice. Ten days after transplantation, 40 mice with well growing tumors were groupled into 4 groups with equal average tumor volume (16 mm^3) in each group. Treatment started 13 days after transplantation and was continuted for 44 days. The tumors were measured and volume was calculated weekly. Tumor volume changes are shown in Table V. On day 45 of treatment the mice were sacraficed under Metofane anesthesia by exsanguination from abdominal aorta. Blood was collected, tumor and organ weights were determined.

Compound: GH-RH(1-28)NH2 (YADAIFTNSYRKVLGQLSARKLLQDIMS-NH2; UniProt P01286 32-59, looked up, fragment)
- bioactivity of shorter analogues (GH releasing activity): substantially lower bioactivity

Compound: GH-RH(1-27)NH2 (YADAIFTNSYRKVLGQLSARKLLQDIM-NH2; UniProt P01286 32-58, looked up, fragment)
- bioactivity of shorter analogues (GH releasing activity): substantially lower bioactivity

Compound: hGH-RH(2-44) (ADAIFTNSYRKVLGQLSARKLLQDIMSRQQGESNQERGARARL; ends and bridges not checked; UniProt P01286 33-75, looked up, fragment) [GH-RH without its N-terminus residue]
- GH releasing activity relative to GH-RH (GH releasing activity): 0.1%

Compound: [Ac-Tyr^1 ]GH-RH (Ac-YADAIFTNSYRKVLGQLSARKLLQDIMSRQQGESNQERGARARL; ends and bridges not checked; UniProt P01286 32-75, looked up)
- GH releasing activity relative to GH-RH (GH releasing activity): 2-3%

Compound: [D-Tyr^1 ]GH-RH
- GH releasing activity relative to GH-RH (GH releasing activity): 2-3%

Compound: CC[C@H](C)[C@H](NC(=O)[C@H](C)NC(=O)[C@H](CC(=O)O)NC(=O)[C@@H](CCCNC(=N)N)NC(=O)[C@H](Cc1ccc(O)cc1)NC(C)=O)C(=O)N[C@@H](Cc1ccccc1)C(=O)N[C@H](C(=O)N[C@@H](CC(N)=O)C(=O)N[C@@H](CO)C(=O)N[C@@H](Cc1ccc(O)cc1)C(=O)N[C@@H](CCCNC(=N)N)C(=O)N[C@@H](CCCCN)C(=O)N[C@H](C(=O)N[C@@H](CC(C)C)C(=O)NCC(=O)N[C@@H](CCC(N)=O)C(=O)N[C@@H](CC(C)C)C(=O)N[C@@H](CO)C(=O)N[C@@H](C)C(=O)N[C@@H](CCCNC(=N)N)C(=O)N[C@@H](CCCCN)C(=O)N[C@@H](CC(C)C)C(=O)N[C@@H](CC(C)C)C(=O)N[C@@H](CCC(N)=O)C(=O)N[C@@H](CC(=O)O)C(=O)N[C@H](C(=O)N[C@@H](CCSC)C(=O)N[C@@H](CO)C(=O)N[C@@H](CCCNC(=N)N)C(N)=O)[C@@H](C)CC)C(C)C)[C@@H](C)O [Standard antagonist, [Ac-Tyr^1,D-Arg^2]hGH-RH(1-29)NH2] (Ac-Y[dR]DAIFTNSYRKVLGQLSARKLLQDIMSR-NH2)
- Inhibition of GH release (%) 0 min ([1]; 0 min response): 62.1%
- Inhibition of GH release (%) 30 min ([1]; 30 min response): 2.5%
- Inhibition of GH release (%) 60 min ([1]; 60 min response): 19%
- Ki [2]: 3.37 ± 0.14 nM
- relative affinities (R.A.) ([2]; relative to Standard antagonist (=1)): 1

Compound: CCCC[C@H](NC(=O)[C@@H](NC(=O)[C@H](CC(=O)O)NC(=O)[C@H](CCC(N)=O)NC(=O)[C@H](CC(C)C)NC(=O)[C@H](CC(C)C)NC(=O)[C@H](CCCCN)NC(=O)[C@H](CCCNC(=N)N)NC(=O)[C@H](C)NC(=O)[C@H](CO)NC(=O)[C@H](CC(C)C)NC(=O)[C@H](CCC(N)=O)NC(=O)[C@H](C)NC(=O)[C@H](CC(C)C)NC(=O)[C@@H](NC(=O)[C@H](CCCCN)NC(=O)[C@H](CCCNC(=N)N)NC(=O)[C@H](Cc1ccc(O)cc1)NC(=O)[C@H](CO)NC(=O)[C@H](CC(N)=O)NC(=O)[C@@H](NC(=O)[C@H](Cc1ccc(Cl)cc1)NC(=O)[C@@H](NC(=O)[C@H](C)NC(=O)[C@H](CC(=O)O)NC(=O)[C@@H](CCCNC(=N)N)NC(=O)[C@H](Cc1ccc(O)cc1)NC(=O)Cc1ccccc1)[C@@H](C)CC)[C@@H](C)O)C(C)C)[C@@H](C)CC)C(=O)N[C@@H](CC(=O)O)C(=O)NCCCCNC(=N)N [Peptide 5, [PhAc^0,D-Arg^2,Phe(pCl)^6,Ala^15,Nle^27,Asp^28]hGH-RH(1-28)Agm] (PhAc-Y[dR]DAI[Phe(4-Cl)]TNSYRKVLAQLSARKLLQDI[Nle]D-Agmatine)
- Ki [2]: 0.096 nM

Compound: CCCC[C@H](NC(=O)[C@@H](NC(=O)[C@H](CC(=O)O)NC(=O)[C@H](CCC(N)=O)NC(=O)[C@H](CC(C)C)NC(=O)[C@H](CC(C)C)NC(=O)[C@H](CCCCN)NC(=O)[C@H](CCCNC(=N)N)NC(=O)[C@H](C)NC(=O)[C@H](CO)NC(=O)[C@H](CC(C)C)NC(=O)[C@H](CCC(N)=O)NC(=O)[C@H](C)NC(=O)[C@H](CC(C)C)NC(=O)[C@@H](NC(=O)[C@H](CCCCN)NC(=O)[C@H](CCCNC(=N)N)NC(=O)[C@H](Cc1ccc(O)cc1)NC(=O)[C@H](CO)NC(=O)[C@H](CC)NC(=O)[C@@H](NC(=O)[C@H](Cc1ccc(Cl)cc1)NC(=O)[C@@H](NC(=O)[C@H](C)NC(=O)[C@H](CC(=O)O)NC(=O)[C@@H](CCCNC(=N)N)NC(=O)[C@H](Cc1ccc(O)cc1)NC(=O)Cc1ccccc1)[C@@H](C)CC)[C@@H](C)O)C(C)C)[C@@H](C)CC)C(=O)N[C@@H](CO)C(=O)N[C@@H](CCCNC(=N)N)C(N)=O [Peptide 11, [PhAc^0,D-Arg^2,Phe(pCl)^6,Abu^8,Ala^15,Nle^27],hGH-RH(1-29)NH2] (PhAc-Y[dR]DAI[Phe(4-Cl)]T[Abu]SYRKVLAQLSARKLLQDI[Nle]SR-NH2)
- Ki [2]: 0.059 ± 0.001 nM

Compound: [PhAc^0,D-Arg^2,Phe(pCl)^6,Abu^15,Nle^27 ]hGH-RH(1-28)Agm [Peptide B]
- Final Tumor Volume mm^3 [3]: 612 ± 220 mm^3
- Tumor weights [3]: 931 ± 330 mg

Compound: CCCC[C@H](NC(=O)[C@@H](NC(=O)[C@H](CC(=O)O)NC(=O)[C@H](CCC(N)=O)NC(=O)[C@H](CC(C)C)NC(=O)[C@H](CC(C)C)NC(=O)[C@@H]1CCCCNC(=O)CC[C@H](NC(=O)[C@H](CCC(N)=O)NC(=O)[C@H](C)NC(=O)[C@H](CC(C)C)NC(=O)[C@@H](NC(=O)[C@H](CCCCN)NC(=O)[C@H](CCCNC(=N)N)NC(=O)[C@H](Cc2ccc(O)cc2)NC(=O)[C@H](CO)NC(=O)[C@H](CO)NC(=O)[C@@H](NC(=O)[C@H](Cc2ccc(Cl)cc2)NC(=O)[C@@H](NC(=O)[C@H](C)NC(=O)[C@H](CC(=O)O)NC(=O)[C@@H](CCCNC(=N)N)NC(=O)[C@H](Cc2ccc(O)cc2)NC(=O)Cc2ccccc2)[C@@H](C)CC)[C@@H](C)O)C(C)C)C(=O)N[C@@H](CO)C(=O)N[C@@H](C)C(=O)N[C@@H](CCCNC(=N)N)C(=O)N1)[C@@H](C)CC)C(=O)N[C@@H](CO)C(=O)N[C@@H](CCCNC(=N)N)C(N)=O [Peptide 18, cyclo^17,21 [PhAc^0,D-Arg^2,Phe(pCl)^6,Ser^8,Ala^15,Glu^17,Nle^27]hGH-RH(1-29)NH2] (PhAc-Y[dR]DAI[Phe(4-Cl)]TSSYRKVLAQESARKLLQDI[Nle]SR-NH2; lactam 17-21)
- Ki [2]: 0.159 ± 0.04 nM
